PubChem BioAssay AID256 (DTP/NCI, 2004)
Where “and” joins values, the source holds several entries; their conditions need not be identical. Identical values can stand only once. Inconclusive results and toxic doses are left out. How the source made its calls: active means survival T/C of 150% or more; inactive means T/C below 125% in these data.

Tested on: CD2F1 mice, L1210 leukemia ip, survival T/C
Experiment: NCI In Vivo Anticancer Drug Screen. Data for tumor model L1210 Leukemia (intraperitoneal) in CD2F1 (CDF1) mice
Details: endpoint: mean survival time, higher = longer survival
Method in brief: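 Each value reflects a quotient of treated over vehicle control outcomes in mice with a transplanted tumor.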

[1] = dose: 100.0 mg/kg/injection, schedule: Q01DX001 (ip), vehicle: saline with Tween-80
[2] = dose: 200.0 mg/kg/injection, schedule: Q01DX001 (ip), vehicle: saline with Tween-80
[3] = dose: 400.0 mg/kg/injection, schedule: Q01DX001 (ip), vehicle: saline with Tween-80
[4] = dose: 100.0 mg/kg/injection, schedule: Q01DX009 (ip), vehicle: saline with Tween-80
[5] = dose: 5.0 mg/kg/injection, schedule: Q04DX003 (ip), vehicle: saline with Tween-80
[6] = dose: 10.0 mg/kg/injection, schedule: Q04DX003 (ip), vehicle: saline with Tween-80
[7] = dose: 20.0 mg/kg/injection, schedule: Q04DX003 (ip), vehicle: saline with Tween-80
[8] = dose: 50.0 mg/kg/injection, schedule: Q01DX009 (ip), vehicle: Klucel (hydroxypropylcellulose) (HPC)
[9] = dose: 100.0 mg/kg/injection, schedule: Q01DX009 (ip), vehicle: Klucel (hydroxypropylcellulose) (HPC)
[10] = dose: 200.0 mg/kg/injection, schedule: Q01DX009 (ip), vehicle: Klucel (hydroxypropylcellulose) (HPC)
[11] = dose: 100.0 mg/kg/injection, schedule: Q04DX003 (ip), vehicle: saline with Tween-80
[12] = dose: 200.0 mg/kg/injection, schedule: Q04DX003 (ip), vehicle: saline with Tween-80
[13] = dose: 400.0 mg/kg/injection, schedule: Q04DX003 (ip), vehicle: saline with Tween-80
[14] = dose: 100.0 mg/kg/injection, schedule: Q04DX002 (ip), vehicle: saline with Tween-80
[15] = dose: 200.0 mg/kg/injection, schedule: Q04DX002 (ip), vehicle: saline with Tween-80
[16] = dose: 400.0 mg/kg/injection, schedule: Q04DX002 (ip), vehicle: saline with Tween-80
[17] = dose: 25.0 mg/kg/injection, schedule: Q01DX009 (ip), vehicle: saline with Tween-80
[18] = dose: 100.0 mg/kg/injection, schedule: Q01DX001 (ip), vehicle: saline
[19] = dose: 200.0 mg/kg/injection, schedule: Q01DX001 (ip), vehicle: saline
[20] = dose: 400.0 mg/kg/injection, schedule: Q01DX001 (ip), vehicle: saline

Measured: T/C

[Cl][Pt+2][Cl].[NH-]c1ccc(CC(=O)O)cc1[NH-]
inactive: dose: 3.13 mg/kg/injection, schedule: Q04DX003 (ip), vehicle: water 103 % of control | dose: 6.25 mg/kg/injection, schedule: Q04DX003 (ip), vehicle: water 105 % of control | dose: 12.5 mg/kg/injection, schedule: Q04DX003 (ip), vehicle: water 101 % of control | dose: 25.0 mg/kg/injection, schedule: Q04DX003 (ip), vehicle: water 116 % of control

COc1ccc(N=Nc2sc(N)nc2-c2cccc([N+](=O)[O-])c2)cc1
inactive: [1] 93 % of control | [2] 90 % of control | [3] 97 % of control

O=C(CNC(=O)Nc1cccc(C(F)(F)F)c1)NNC(=O)Nc1ccc(Cl)c([N+](=O)[O-])c1
inactive: [4] 89 % of control | dose: 200.0 mg/kg/injection, schedule: Q01DX009 (ip), vehicle: saline with Tween-80 86 % of control

CCCCCCC/C=N/NC(=O)c1ccc[n+](C)c1
inactive: [1] 97 % of control | [2] 97 % of control

COC(=O)[C@H]1[C@H]2C[C@@H]3c4[nH]c5cc(OC)ccc5c4CCN3C[C@H]2C[C@@H](OC(=O)/C=C/c2cc(OC)c(OC)c(OC)c2)[C@@H]1OC
inactive: dose: 0.63 mg/kg/injection, schedule: Q01DX009 (ip), vehicle: saline sonified 86 % of control | dose: 1.25 mg/kg/injection, schedule: Q01DX009 (ip), vehicle: saline sonified 96 % of control | dose: 2.5 mg/kg/injection, schedule: Q01DX009 (ip), vehicle: saline sonified 90 % of control | [5] 95 % of control | [6] 101 % of control | [7] 112 % of control

CN(C)c1ccc(OC(=O)c2cc3ccccc3cc2O)cc1
inactive: [8] 112 % of control | [9] 108 % of control | [10] 101 % of control

O=C1OC(=O)C2C3C=CC(C12)C1C2C(=O)OC(=O)C2C31 (stereo not given)
inactive: [11] 91 % of control and 101 % of control | [12] 94 % of control and 97 % of control | [13] 123 % of control and 94 % of control | dose: 600.0 mg/kg/injection, schedule: Q04DX003 (ip), vehicle: saline with Tween-80 110 % of control

Cc1ccc(NC(=O)c2ccccc2C(=O)O)cc1
inactive: [11] 101 % of control | [12] 97 % of control | [13] 95 % of control

NC(CN1CCCCC1)C(=O)O (stereo not given)
inactive: [14] 98 % of control | [15] 90 % of control | [16] 94 % of control

c1ccc(CCN2CCCCC2)nc1
inactive: dose: 3.13 mg/kg/injection, schedule: Q04DX003 (ip), vehicle: saline with Tween-80 93 % of control | dose: 6.25 mg/kg/injection, schedule: Q04DX003 (ip), vehicle: saline with Tween-80 93 % of control

CC1(C)N=C(N)N=C(N)N1c1cccc(CCCCOc2ccccc2)c1
inactive: dose: 6.25 mg/kg/injection, schedule: Q01DX009 (ip), vehicle: saline with Tween-80 101 % of control | dose: 12.5 mg/kg/injection, schedule: Q01DX009 (ip), vehicle: saline with Tween-80 111 % of control | [17] 108 % of control

CC(=O)OC1CC2(O)C3CCC4CC(O)CCC4(C)C3CCC2(C)C1C1=CC(=O)OC1 (stereo not given)
inactive: [1] 98 % of control | [2] 101 % of control

Fc1ccccc1OCC1CO1 (stereo not given)
inactive: [18] 114 % of control | [19] 110 % of control | [20] 108 % of control

O=C1C(Cl)=C(Cl)C(=O)c2ccccc21
inactive: [5] 98 % of control | [6] 93 % of control | [7] 101 % of control

CNC(=O)c1nc2c(nc1NC)n(C)c(=O)n2C
inactive: dose: 12.5 mg/kg/injection, schedule: Q01DX005 (ip), vehicle: other 93 % of control | dose: 25.0 mg/kg/injection, schedule: Q01DX005 (ip), vehicle: other 90 % of control | dose: 50.0 mg/kg/injection, schedule: Q01DX005 (ip), vehicle: other 95 % of control

CC(=O)Nc1ccc2c(c1)CCCC2
inactive: [14] 101 % of control | [15] 104 % of control | [16] 104 % of control

O=C1CCC(=O)N1O
inactive: [18] 104 % of control | dose: 100.0 mg/kg/injection, schedule: Q04DX003 (ip), vehicle: saline 100 % of control | [19] 103 % of control | dose: 200.0 mg/kg/injection, schedule: Q04DX003 (ip), vehicle: saline 102 % of control | [20] 103 % of control | dose: 400.0 mg/kg/injection, schedule: Q04DX003 (ip), vehicle: saline 98 % of control

Cc1ncc2c(n1)NC(c1ccc(Cl)cc1Cl)NC2 (stereo not given)
inactive: dose: 75.0 mg/kg/injection, schedule: Q01DX001 (ip), vehicle: saline 101 % of control | dose: 150.0 mg/kg/injection, schedule: Q01DX001 (ip), vehicle: saline 105 % of control | dose: 300.0 mg/kg/injection, schedule: Q01DX001 (ip), vehicle: saline 101 % of control

Cc1ccc(S(=O)(=O)OCC(O)C(O)C(O)C(O)COS(=O)(=O)c2ccc(C)cc2)cc1 (stereo not given)
inactive: dose: 50.0 mg/kg/injection, schedule: Q01DX001 (ip), vehicle: saline with Tween-80 96 % of control | [1] 96 % of control | [2] 96 % of control

CN1C(=O)c2ccccc2C1(/N=C/c1ccccc1)c1ccccc1 (stereo not given)
inactive: [11] 96 % of control | [12] 96 % of control | [13] 96 % of control

O=C(CN1CCCCC1Cl)c1ccccc1 (stereo not given)
inactive: [17] 102 % of control | dose: 50.0 mg/kg/injection, schedule: Q01DX009 (ip), vehicle: saline with Tween-80 96 % of control | [4] 102 % of control

COc1ccc(CC2(C#N)c3ccccc3C=CN2C(=O)c2ccccc2)c([N+](=O)[O-])c1OC (stereo not given)
inactive: [1] 95 % of control | [2] 97 % of control | [3] 95 % of control

CN(C)C(=O)c1cccc(COc2ccc([N+](=O)[O-])cc2Cl)c1
inactive: dose: 100.0 mg/kg/injection, schedule: Q01DX009 (ip), vehicle: saline sonified 102 % of control | [11] 101 % of control | dose: 200.0 mg/kg/injection, schedule: Q01DX009 (ip), vehicle: saline sonified 98 % of control | [12] 103 % of control | [13] 95 % of control

O=c1[nH]cc(N=Cc2ccccc2Cl)c(=O)[nH]1.[Cl][Pt][Cl]
inactive: dose: 3.13 mg/kg/injection, schedule: Q04DX003 (ip), vehicle: distilled water + Tween-80 94 % of control | dose: 6.25 mg/kg/injection, schedule: Q04DX003 (ip), vehicle: distilled water + Tween-80 97 % of control | dose: 12.5 mg/kg/injection, schedule: Q04DX003 (ip), vehicle: distilled water + Tween-80 88 % of control | dose: 25.0 mg/kg/injection, schedule: Q04DX003 (ip), vehicle: distilled water + Tween-80 96 % of control | dose: 50.0 mg/kg/injection, schedule: Q04DX003 (ip), vehicle: distilled water + Tween-80 96 % of control | dose: 100.0 mg/kg/injection, schedule: Q04DX003 (ip), vehicle: distilled water + Tween-80 103 % of control | dose: 200.0 mg/kg/injection, schedule: Q04DX003 (ip), vehicle: distilled water + Tween-80 94 % of control

S
inactive: dose: 100.0 mg/kg/injection, schedule: Q04DX003 (ip), vehicle: Klucel (hydroxypropylcellulose) (HPC) 95 % of control | dose: 200.0 mg/kg/injection, schedule: Q04DX003 (ip), vehicle: Klucel (hydroxypropylcellulose) (HPC) 101 % of control | dose: 400.0 mg/kg/injection, schedule: Q04DX003 (ip), vehicle: Klucel (hydroxypropylcellulose) (HPC) 93 % of control

Oc1c(Cl)cc(C(c2cc(Cl)c(O)c(Cl)c2)C(c2cc(Cl)c(O)c(Cl)c2)c2cc(Cl)c(O)c(Cl)c2)cc1Cl
inactive: dose: 12.5 mg/kg/injection, schedule: Q01DX009 (ip), vehicle: Klucel (hydroxypropylcellulose) (HPC) 95 % of control | dose: 25.0 mg/kg/injection, schedule: Q01DX009 (ip), vehicle: Klucel (hydroxypropylcellulose) (HPC) 97 % of control | [8] 103 % of control | [9] 106 % of control | [10] 115 % of control | dose: 400.0 mg/kg/injection, schedule: Q01DX009 (ip), vehicle: Klucel (hydroxypropylcellulose) (HPC) 96 % of control

C=CC(=O)NC(C)(C)CC(C)(C)C
inactive: [4] 105 % of control | [11] 92 % of control | [12] 102 % of control | [13] 96 % of control
